Patent publication US8735425B2, “Tetrahydroisoquinoline derivative” (Daiichi Sankyo Company, Limited, priority 2008, dated 2014)

What was measured:
Male C57BL/6N mice = assay: Triglyceride absorption suppression after fat loading (in vivo DGAT1 inhibitory effect); details: Mus musculus, po; dose of 10 mg/kg or lower, orally administered, mice fasted overnight, plasma triglyceride after fat loading; read-out: Triglyceride absorption suppressive activity
Procedure: The DGAT1 enzyme is important for the digestion and absorption of triglycerides, and the inhibition of DGAT1 in the small intestine suppresses the absorption of triglycerides. The in vivo activity of its DGAT1 inhibitory effect was evaluated with the suppressed absorption of triglycerides after fat loading as an index. Male C57BL/6N mice (7-12 weeks old, body weight: 17-25 g, Charles River Laboratories Japan Inc.) fasted overnight were assigned to Vehicle group 1, Vehicle group 2, and each test compound group, to which a vehicle (0.5% methylcellulose) or each test compound (1 to 10 mg/kg) suspended in vehicle was orally administered (5 mL/kg). After a given time, a lipoprotein lipase inhibitor (Pluronic-F127: Sigma-Aldrich Corp., 1 g/kg, 20% by weight dissolved in saline) was intraperitoneally administered (5 mL/kg) to each group. Immediately thereafter, distilled water for the Vehicle group 1 or a 20% fat-containing emulation (Intralipid 20%: TERUMO CORP., Japan) for the Vehicle group 2 and the compound groups were orally administered thereto (0.2 mL/mouse). After a given time of 1 to 4 hours after administration, blood was collected from the tail vein or the right ventricle, and plasma was immediately separated and collected. Then, the triglyceride concentration in plasma was measured using a commercially available kit (Triglyceride E-Test Wako: Wako Pure Chemical Industries, Ltd.). In this method, the administration of the lipoprotein lipase inhibitor suppresses the hydrolysis of triglycerides in the blood such that the triglycerides are accumulated in the blood. These triglycerides are derived from two origins: exogenous triglycerides absorbed in the gastrointestinal tract and endogenous triglycerides released from the liver. The triglyceride absorption suppressive activity of each test compound was calculated based on the equation shown below by removing the influence of the endogenous triglycerides. In this context, each test compound was separately confirmed to have no influence on the concentration of the endogenous triglycerides.
Triglyceride absorption suppressive activity (%)=100−[(Triglyceride concentration of each test compound group)−(Triglyceride concentration of Vehicle group 1)]/[(Triglyceride concentration of Vehicle group 2)−(Triglyceride concentration of Vehicle group 1)]×100

DGAT1 enzyme = target: T1, DGAT1 enzyme (Homo sapiens, UniProt O75907); assay: DGAT1 inhibitory activity test; assay type: biochemical; details: test compound concentration of 0.05 μg/ml; read-out: Inhibitory Rate
T1 construct: made in house
T1 sequence (O75907 1-488): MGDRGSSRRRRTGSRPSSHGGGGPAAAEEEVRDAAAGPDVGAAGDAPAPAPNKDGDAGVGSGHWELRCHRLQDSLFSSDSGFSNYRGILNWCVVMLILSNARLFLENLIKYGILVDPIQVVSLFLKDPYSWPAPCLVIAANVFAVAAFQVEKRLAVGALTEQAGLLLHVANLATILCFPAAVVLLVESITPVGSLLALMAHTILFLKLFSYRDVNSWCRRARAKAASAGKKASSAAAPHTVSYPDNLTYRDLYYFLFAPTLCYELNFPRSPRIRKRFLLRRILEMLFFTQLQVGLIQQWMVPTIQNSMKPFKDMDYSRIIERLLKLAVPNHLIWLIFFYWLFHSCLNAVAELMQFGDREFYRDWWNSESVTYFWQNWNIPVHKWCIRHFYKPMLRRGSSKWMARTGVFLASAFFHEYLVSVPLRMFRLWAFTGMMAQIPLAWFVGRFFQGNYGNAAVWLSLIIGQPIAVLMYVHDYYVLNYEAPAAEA
Procedure: DGAT1 enzyme was prepared and stored according to the method described in US2007/0249620.
(2) DGAT1 Inhibitory Activity Test
A reaction solution having the following composition was incubated at room temperature (23° C.) for 30 minutes: 175 mM Tris-HCl (pH 8.0), 8 mM MgCl2, 1 mg/ml BSA, 0.3 mM 1,2-dioleoyl-sn-glycerol (10-fold concentration of EtOH solution, 10% added), 10 μM [^14C]-oleoyl-CoA (approximately 50 mCi/mmol), 0.5% Triton X-100, the DGAT1 enzyme (10 μg) obtained in Test Example 1(1), and a test compound or vehicle (DMSO/MeOH, 7:3 solution, 5% added), […] in total. A reaction stop solution ([…] consisting of isopropanol/1-heptane/water (80:20:2, v/v/v) was added to the reaction solution and stirred. Subsequently, water (30 μl) and 1-heptane (100 μl) were added thereto and stirred. The 1-heptane layer (50 μl) was spotted onto a TLC plate and developed with a developing solvent consisting of 1-hexane/diethyl ether/acetic acid (85:15:1, v/v/v). The radioactivity of the triglyceride fraction was quantified using BAS2000 Bio Image Analyzer (FUJIFILM) and compared with the control. The inhibitory activity of the test compound was calculated according to the formula shown below. In this context, the radioactivity at no reaction (0 minute incubation) was used as background. Inhibitory Rate=100−[(Radioactivity of sample supplemented with test compound)−(Background)]/[(Radioactivity of control)−(Background)]×100

In the case of `COc1ccc(F)cc1NC(=O)Nc1ccc2c(c1)CCN(C(=O)O[C@H]1CC[C@H](CC(=O)O)CC1)C2` [Example 22, trans-6-[3-(5-fluoro-2-methoxy-phenyl)-ureido]-3,4-dihydro-1H-isoquinoline-2-carboxylic acid 4-carboxymethyl-cyclohexyl ester], the inhibition in vivo at up to 10 mg/kg (Male C57BL/6N mice) is reported as at least 60% and the inhibition at 0.05 µg/mL (DGAT1 enzyme) is reported as at least 50%.
`COc1ccc(C)cc1NC(=O)Nc1ccc2c(c1)CCN(C(=O)O[C@H]1CC[C@H](CC(=O)O)CC1)C2` [Example 23, trans-6-[3-(2-methoxy-5-methyl-phenyl)-ureido]-3,4-dihydro-1H-isoquinoline-2-carboxylic acid 4-carboxymethyl-cyclohexyl ester] gave an inhibition in vivo at up to 10 mg/kg (Male C57BL/6N mice) of at least 60% and an inhibition at 0.05 µg/mL (DGAT1 enzyme) of at least 50%.
With `COc1ncccc1NC(=O)Nc1ccc2c(c1)CCN(C(=O)O[C@H]1CC[C@H](CC(=O)O)CC1)C2` [Example 24, trans-6-[3-(2-methoxy-pyridin-3-yl)-ureido]-3,4-dihydro-1H-isoquinoline-2-carboxylic acid 4-carboxymethyl-cyclohexyl ester] the inhibition in vivo at up to 10 mg/kg (Male C57BL/6N mice) was at least 60% and the inhibition at 0.05 µg/mL (DGAT1 enzyme) was at least 50%.
In the case of `O=C(O)C[C@H]1CC[C@H](OC(=O)N2CCc3cc(Nc4nc5ccccc5o4)ccc3C2)CC1` [Example 25, trans-6-(benzoxazol-2-ylamino)-3,4-dihydro-1H-isoquinoline-2-carboxylic acid 4-carboxymethyl-cyclohexyl ester], the inhibition in vivo at up to 10 mg/kg (Male C57BL/6N mice) is reported as at least 60% and the inhibition at 0.05 µg/mL (DGAT1 enzyme) is reported as at least 50%.
Molecule `CCOc1ccccc1NC(=O)Nc1ccc2c(c1)CCN(C(=O)O[C@H]1CC[C@H](CC(=O)O)CC1)C2` [Example 26, trans-6-[3-(2-ethoxy-phenyl)-ureido]-3,4-dihydro-1H-isoquinoline-2-carboxylic acid 4-carboxymethyl-cyclohexyl ester] has an inhibition in vivo at up to 10 mg/kg (Male C57BL/6N mice) of at least 60% and an inhibition at 0.05 µg/mL (DGAT1 enzyme) of at least 50%.
Work on `CCOc1ccc(F)cc1NC(=O)Nc1ccc2c(c1)CCN(C(=O)O[C@H]1CC[C@H](CC(=O)O)CC1)C2` [Example 27, trans-6-[3-(2-ethoxy-5-fluoro-phenyl)-ureido]-3,4-dihydro-1H-isoquinoline-2-carboxylic acid 4-carboxymethyl-cyclohexyl ester] yielded an inhibition in vivo at up to 10 mg/kg (Male C57BL/6N mice) of at least 60% and an inhibition at 0.05 µg/mL (DGAT1 enzyme) of at least 50%.
For `CC(C)c1ccccc1NC(=O)Nc1ccc2c(c1)CCN(C(=O)O[C@H]1CC[C@H](CC(=O)O)CC1)C2` [Example 28, trans-6-[3-(2-isopropyl-phenyl)-ureido]-3,4-dihydro-1H-isoquinoline-2-carboxylic acid 4-carboxymethyl-cyclohexyl ester], the inhibition in vivo at up to 10 mg/kg (Male C57BL/6N mice) was at least 60% and the inhibition at 0.05 µg/mL (DGAT1 enzyme) was at least 50%.
In the case of `CC(C)c1cccc(NC(=O)Nc2ccc3c(c2)CCN(C(=O)O[C@H]2CC[C@H](CC(=O)O)CC2)C3)c1` [Example 29, trans-6-[3-(3-isopropyl-phenyl)-ureido]-3,4-dihydro-1H-isoquinoline-2-carboxylic acid 4-carboxymethyl-cyclohexyl ester], the inhibition in vivo at up to 10 mg/kg (Male C57BL/6N mice) is reported as at least 60% and the inhibition at 0.05 µg/mL (DGAT1 enzyme) is reported as at least 50%.
`CC(C)Oc1cccc(NC(=O)Nc2ccc3c(c2)CCN(C(=O)O[C@H]2CC[C@H](CC(=O)O)CC2)C3)c1` [Example 30, trans-6-[3-(3-isopropoxy-phenyl)-ureido]-3,4-dihydro-1H-isoquinoline-2-carboxylic acid 4-carboxymethyl-cyclohexyl ester] was tested, and the inhibition in vivo at up to 10 mg/kg (Male C57BL/6N mice) was at least 60% and the inhibition at 0.05 µg/mL (DGAT1 enzyme) was at least 50%.
Molecule `O=C(O)C[C@H]1CC[C@H](OC(=O)N2CCc3cc(NC(=O)Nc4cc(F)c(F)cc4F)ccc3C2)CC1` [Example 31, trans-6-[3-(2,4,5-trifluoro-phenyl)-ureido]-3,4-dihydro-1H-isoquinoline-2-carboxylic acid 4-carboxymethyl-cyclohexyl ester] has an inhibition in vivo at up to 10 mg/kg (Male C57BL/6N mice) of at least 60% and an inhibition at 0.05 µg/mL (DGAT1 enzyme) of at least 50%.
With `O=C(O)C[C@H]1CC[C@H](OC(=O)N2CCc3cc(NC(=O)Nc4cc(F)c(F)c(F)c4)ccc3C2)CC1` [Example 32, trans-6-[3-(3,4,5-trifluoro-phenyl)-ureido]-3,4-dihydro-1H-isoquinoline-2-carboxylic acid 4-carboxymethyl-cyclohexyl ester] the inhibition in vivo at up to 10 mg/kg (Male C57BL/6N mice) was at least 60% and the inhibition at 0.05 µg/mL (DGAT1 enzyme) was at least 50%.
In the case of `O=C(Nc1ccc2c(c1)CCN(C(=O)O[C@H]1CC[C@H](Cc3noc(=O)[nH]3)CC1)C2)Nc1ccccc1F` [Example 41, trans-6-[3-(2-fluoro-phenyl)-ureido]-3,4-dihydro-1H-isoquinoline-2-carboxylic acid 4-(5-oxo-4,5-dihydro-[1,2,4]oxadiazol-3-ylmethyl)-cyclohexyl ester], the inhibition in vivo at up to 10 mg/kg (Male C57BL/6N mice) is reported as at least 60% and the inhibition at 0.05 µg/mL (DGAT1 enzyme) is reported as at least 50%.
In the case of `O=C(Nc1ccc2c(c1)CCN(C(=O)O[C@H]1CC[C@H](Cc3cc(O)no3)CC1)C2)Nc1ccccc1F` [Example 43, trans-6-[3-(2-fluoro-phenyl)-ureido]-3,4-dihydro-1H-isoquinoline-2-carboxylic acid 4-(3-hydroxy-isoxazol-5-ylmethyl)-cyclohexyl ester], the inhibition in vivo at up to 10 mg/kg (Male C57BL/6N mice) is reported as at least 60% and the inhibition at 0.05 µg/mL (DGAT1 enzyme) is reported as at least 50%.
`O=C(Nc1ccc2c(c1)CCN(C(=O)O[C@H]1CC[C@H](Cc3nn[nH]n3)CC1)C2)Nc1ccccc1F` [Example 44, trans-6-[3-(2-fluoro-phenyl)-ureido]-3,4-dihydro-1H-isoquinoline-2-carboxylic acid 4-(2H-tetrazol-5-ylmethyl)-cyclohexyl ester] gave an inhibition in vivo at up to 10 mg/kg (Male C57BL/6N mice) of at least 60% and an inhibition at 0.05 µg/mL (DGAT1 enzyme) of at least 50%.
For `O=C(Nc1ccc2c(c1)CCN(C(=O)O[C@H]1CC[C@H](CC(=O)OC[C@@H](O)CO)CC1)C2)Nc1ccccc1F` [Example 45, trans-6-[3-(2-fluoro-phenyl)-ureido]-3,4-dihydro-1H-isoquinoline-2-carboxylic acid 4-((S)-2,3-dihydroxy-propoxycarbonylmethyl)-cyclohexyl ester], the inhibition in vivo at up to 10 mg/kg (Male C57BL/6N mice) was at least 60% and the inhibition at 0.05 µg/mL (DGAT1 enzyme) was at least 50%.
For `O=C(O)C[C@H]1CC[C@H](OC(=O)N2CCc3cc(Nc4nc5ccc(Cl)cc5o4)ccc3C2)CC1` [Example 47, trans-6-(6-chloro-benzoxazol-2-ylamino)-3,4-dihydro-1H-isoquinoline-2-carboxylic acid 4-carboxymethyl-cyclohexyl ester], the inhibition in vivo at up to 10 mg/kg (Male C57BL/6N mice) was at least 60% and the inhibition at 0.05 µg/mL (DGAT1 enzyme) was at least 50%.
`CCOc1ccc(C)cc1NC(=O)Nc1ccc2c(c1)CCN(C(=O)O[C@H]1CC[C@H](CC(=O)O)CC1)C2` [Example 48, trans-6-[3-(2-ethoxy-5-methyl-phenyl)-ureido]-3,4-dihydro-1H-isoquinoline-2-carboxylic acid 4-carboxymethyl-cyclohexyl ester] showed an inhibition in vivo at up to 10 mg/kg (Male C57BL/6N mice) of at least 60% and an inhibition at 0.05 µg/mL (DGAT1 enzyme) of at least 50%.
Molecule `COc1cccc(NC(=O)Nc2ccc3c(c2)CCN(C(=O)O[C@H]2CC[C@H](CC(=O)O)CC2)C3)c1` [Example 49, trans-6-[3-(3-methoxy-phenyl)-ureido]-3,4-dihydro-1H-isoquinoline-2-carboxylic acid 4-carboxymethyl-cyclohexyl ester] has an inhibition in vivo at up to 10 mg/kg (Male C57BL/6N mice) of at least 60% and an inhibition at 0.05 µg/mL (DGAT1 enzyme) of at least 50%.
